For data set [1], the system named is clinical strains of Acinetobacter johnsonii. In kind it is cell-based. On the procedure:
(§1) Minimum inhibition concentrations (MICs) were determined against Escherichia coli (ATCC 25922), Staphylococcus aureus (ATCC 25923), Klebsiella pneumoniae (ATCC 10031) and Pseudomonas aeruginosa (ATCC 27853). Also clinical strains of E. coli, K. pneumoniae, E. cloacae, P. aeruginosa, Serratia marcescens, Proteus mirabilis, S. pneumoniae, Acinetobacter baumannii, A. johnsonii and S. aureus were used for MICs assays. Additionally, clinical strains of yeast including Candida albicans, C. glabrata, C. parapsilosis and C. quillermondiae were used. The susceptibility of these microorganisms to Chain peptides were determined using micro broth dilution assay. Colonies of the respective microorganism from Muller Hinton (MH) agar plates incubated overnight were suspended in MH broth media and final concentration of microorganism was adjusted to 5.0×10^5 cfu/ml. An aliquot of 10 μl of each Chain peptide, or gentamicin, tetracycline as reference antibiotics were added in differing concentrations along with 90 μl of bacterial suspension to 96 well polypropylene plates and incubated at 37° C. for 20 to 24 hours. Concentrations of Chain peptides and reference antibiotics ranged from 0.125 to 128 μg/ml and the MICs were recorded as the lowest concentration with no visual growth of bacteria. Similarly, antifungal MICs were tested in Potato dextrose broth.
(§2) Clinical strains of yeasts including Candida albicans, C. glabrata, C. parapsilosis and C. quillermondiae were also tested with the 12 Chain peptides. The minimum inhibitory concentration (MICs) varied between these peptides and are presented in Tables 4a, 4b, 4c and 5a, 5b, 5c. Peptides Chain 105, 201 and 308 are broad spectrum antimicrobials with MICs between 0.5-32 μg/ml against all the bacteria and yeasts tested, except Serratia marcescens and Proteus mirabilis, against which the MICs were between 64-128 μg/ml. Peptide Chain 306 has narrow spectrum activity against E.coli at 1 μg/ml and for the rest of the bacterial strains at >32 μg/ml (FIG. 10).

For data set [2], the system named is clinical strains of Candida albicans. Briefly: MIC, clinical yeast strains, Candida albicans. Details: unit: μg/ml. It counts as cell-based. On the procedure: as §1, §2
Data set [3] relates to clinical strains of C. glabrata. Briefly: MIC, clinical yeast strains, C. glabrata. It counts as cell-based, Candida glabrata. Further details: unit: μg/ml. On the procedure:
as §1, §2

Data set [4] has as its system clinical strains of C. parapsilosis. Briefly: MIC, clinical yeast strains, C. parapsilosis. It counts as cell-based, Candida parapsilosis. Further details: unit: μg/ml. On the procedure: as §1, §2
The test system of data set [5] is clinical strains of C. quillermondiae. Nature of the data set: MIC, clinical yeast strains, C. quillermondiae. In kind it is cell-based. The settings on record: C. quillermondiae clinical yeast strain 1. On the procedure: as §1, §2
Data set [6] deals with Aspergillus flavus (DSM 1959). Briefly: Radial diffusion assay, antifungal, A. flavus. The following applies: 20 μg. In kind it is cell-based. On the procedure: (§3) The radial diffusion assay (RDA) was carried out as described by Andersen et al. (2010). Briefly, 30 ml of 1/10 Muller-Hinton broth (MHB) supplemented with 1% agarose and 5.0×10^5 CFU/ml S. aureus or E. coli or K. pneumoniae, P. aeruginosa cells was poured into a single-well omnitray (Nunc) and overlaid with a TSP 96-well plate. One hundred μg of each synthesized peptide was tested. The peptides were also tested against Fusarium oxysporum and Verticillium dahliae, for which 1/3 potato dextrose agarose was used. To test the synergistic effect of peptides, each peptide was mixed in equimolar concentrations. Mix1 (met1-12), Mix2 (met3, 4 and 5), Mix3 (met 8, 9 and 10), Mix 4 (met11, 12) and Mix5 (8, 9, 10, 11, 12) were prepared and tested against E. coli and S. aureus. Gentamicin and vancomycin were included as positive controls for bacteria and amphotericin B was used as the control for fungi.
(§4) By using rational design techniques, we have designed variants of peptides by incorporating or replacing various amino acids in the original peptides. Thus, we have designed and modified Chain 100, Chain 200 and Chain 300 with tryptophan (W), arginine (R) and lysine (K) at various positions to improve antimicrobial activity (FIGS. 4a-c and 5a-c). In some peptides we have also used other amino acids such as Leucine (L), Cysteine (C), Isoleucine (I), Phenylalanine (F) and Alanine (A). For synthesis, 32 variants and 3 original peptides were selected based on the various parameters such as positive charge, aliphatic index and instability index. Peptides variants were tested by using radial diffusion assay against Escherichia coli (ATCC 25922), Staphylococcus aureus (ATCC 25923), Klebsiella pneumoniae (ATCC 10031) and Pseudomonas aeruginosa (ATCC 27853) (FIGS. 6a-c). The zone of inhibition ranged between 10-18 mm for Escherichia coli and Staphylococcus aureus, 6-18 mm & 8-18 mm for Pseudomonas aeruginosa and Klebsiella pneumonia respectively (Table 2). For Gentamicin it was between 22-24 mm. Antifungal activity was tested for promising antibacterial peptides (Chains 104, 105, 109, 201, 204, 306, 307, 308, 310) against Aspergillus flavus (DSM 1959) and Penicillium chrysogenum (DSM 1075). All these peptides has activity at a concentration of 20 μg, Amphotericin B was used as a positive control at 20 μg (FIG. 7).

In data set [7] the test system is Penicillium chrysogenum (DSM 1075). Nature of the data set: Radial diffusion assay, antifungal, P. chrysogenum. It counts as cell-based. The settings on record: 20 μg. On the procedure:
as §3, §4

The test system of the next data set is human erythrocytes. It counts as cell-based. On the procedure:
In hemolysis assays, the ability of peptides at 128 μg/ml concentration to lyse human erythrocytes to release hemoglobin was measured. The peptides described here preferably have low hemolytic activity (0.2 to 3.8% hemolysis) in mammal body. […] These peptides are useful as antimicrobial drugs as they show little or no side effects at concentrations needed to kill bacteria.
Minimum inhibition concentrations (MICs) were tested by microbroth dilution method and Chain 104, 105 and 109 inhibited the growth of Escherichia coli (ATCC 25922), Staphylococcus aureus (ATCC 25923), Klebsiella pneumoniae (ATCC 10031) and Pseudomonas aeruginosa (ATCC 27853) between 1-8 μg/ml respectively (Tables 3a, 3b and 3c). The membranolytic activities of the peptides were tested by measuring the release of hemoglobin from erythrocytes of fresh blood donated by voluntiers. Hemoglobin levels were determined spectrometrically by taking OD at 540 nm by following the protocol of Schmidtchen et al., 2011.

Data set [8] concerns gram positive and negative bacteria. Briefly: MIC by micro broth dilution, summary over the strains tested. In kind it is cell-based. On the procedure: as §1
Another data set concerns S. aureus COL (MRSA). Nature of the data set: Synergistic activity with Ertapenem (4 μg/ml) against MRSA, MIC. It counts as cell-based, Staphylococcus aureus. The settings on record: Ertapenem 4 μg/ml; L-form. On the procedure: as §1
Peptides Chain 104, Chain 105, Chain 201, Chain 308, Chain 310 were tested against antibiotic-sensitive strains of S. aureus RN4220 and methicillin resistant strains of S. aureus COL (MRSA). Chain peptides comprising of either L- or D-form amino acids were tested against these bacteria, and the D-form peptides were found have better activity compared to L-form (Table 6). Synergistic activity of chain peptides along with Ertapenem (4 μg/ml) was tested to know whether it will influence the activity against MRSA strains. […] Chain 310 has the best antibacterial activity against the MRSA strains with a MIC of 0.06 & 0.03 μg/ml along with Ertapenem (4 μg/ml) for both forms of L and D-peptides (Table 6).

Setting [9] is: Candida albicans clinical yeast strain 1.
[10] abbreviates: Candida albicans clinical yeast strain 2.
Where [11] appears, read: Candida albicans clinical yeast strain 3.
Where [12] appears, read: Candida albicans clinical yeast strain 4.
Where [13] appears, read: Candida albicans clinical yeast strain 5.
Where [14] appears, read: C. glabrata clinical yeast strain 1.
The mark [15] stands for this setting: C. glabrata clinical yeast strain 2.
Setting [16] is: C. glabrata clinical yeast strain 3.
Setting [17] is: C. glabrata clinical yeast strain 4.
Where [18] appears, read: C. parapsilosis clinical yeast strain 1.
Where [19] appears, read: C. parapsilosis clinical yeast strain 2.
Where [20] appears, read: C. parapsilosis clinical yeast strain 3.
Setting [21] is: C. parapsilosis clinical yeast strain 4.

The results in this text go back to US11096985B2, “Antimicrobial peptides, their variants and uses” (priority 2015, dated 2021).

≈ marks a conversion by molar mass, not a printed value. Entries after “also recorded” stand apart in the source; their conditions may differ. Where a SMILES comes first, the peptide text is derived from it. [ ]: non-standard residue; d: D form.

Turning to `CC[C@@H](C)[C@@H](NC(=O)[C@@H](CCSC)NC(=O)[C@@H](C)NC(=O)[C@@H](CCCNC(=N)N)NC(=O)[C@@H](Cc1c[nH]c2ccccc12)NC(=O)[C@@H](CCCCN)NC(=O)[C@H](N)CCCNC(=N)N)C(=O)N[C@H](CCCNC(=N)N)C(=O)N[C@H](CC(C)C)C(=O)N[C@H](Cc1c[nH]cn1)C(=O)N[C@H](C)C(=O)N[C@H](CCCCN)C(=O)N[C@H](CCCNC(=N)N)C(=O)N[C@H](CC(C)C)C(=O)N[C@H](CCCNC(=N)N)C(=O)N[C@H](CCCCN)C(=O)O` [Chain104D] (H-[dR][dK][dW][dR][dA][dM][dI][dR][dL][dH][dA][dK][dR][dL][dR][dK]-OH), the “Minimum inhibitory concentration, Acinetobacter johnsonii strain 1” value in [1] was 8 µg/mL (≈ 3.77 µM). For the same molecule, the Minimum inhibitory concentration in data set [2] (setting [9]), in data set [2] (setting [10]), in data set [2] (setting [11]), in [2] (setting [12]), in [2] (setting [13]) and in data set [3] (setting [14]) was 8 throughout. For the same molecule, the Minimum inhibitory concentration was determined as 8 in data set [3] (setting [15]); 8 in data set [3] (setting [16]); 16 in data set [3] (setting [17]); 4 in [4] (setting [18]); 4 in [4] (setting [19]); 4 in [4] (setting [20]). Besides, the values for the Minimum inhibitory concentration in data set [4] (setting [21]) and in data set [5] were 2 and 4, respectively.

For the molecule `CC[C@@H](C)[C@@H](NC(=O)[C@@H](CCSC)NC(=O)[C@@H](C)NC(=O)[C@@H](CCCNC(=N)N)NC(=O)[C@@H](Cc1c[nH]c2ccccc12)NC(=O)[C@@H](CCCCN)NC(=O)[C@H](N)CCCNC(=N)N)C(=O)N[C@H](CCCNC(=N)N)C(=O)N[C@H](CC(C)C)C(=O)N[C@H](Cc1c[nH]cn1)C(=O)N[C@H](C)C(=O)N[C@H](CCCCN)C(=O)N[C@H](Cc1c[nH]c2ccccc12)C(=O)N[C@H](CC(C)C)C(=O)N[C@H](CCCNC(=N)N)C(=O)N[C@H](CCCCN)C(=O)O` [Chain105D] (H-[dR][dK][dW][dR][dA][dM][dI][dR][dL][dH][dA][dK][dW][dL][dR][dK]-OH), in [1], the “Minimum inhibitory concentration, Acinetobacter johnsonii strain 1” value came to 4 µg/mL (≈ 1.86 µM). The Minimum inhibitory concentration in data set [2] (setting [9]) is 32; in data set [2] (setting [10]) it was 16; in [2] (setting [11]) it was 32; in [2] (setting [12]) it was 32; in [2] (setting [13]), 32; in data set [3] (setting [14]) it was 16. For the same molecule, the Minimum inhibitory concentration was 16 in [3] (setting [15]); 8 in data set [3] (setting [16]); 32 in data set [3] (setting [17]); 8 in data set [4] (setting [18]); 8 in [4] (setting [19]); 8 in [4] (setting [20]). Moreover, the results for the Minimum inhibitory concentration in data set [4] (setting [21]) and in data set [5] were 4 and 8, respectively.

With `CC(C)C[C@H](NC(=O)[C@H](Cc1c[nH]c2ccccc12)NC(=O)[C@H](Cc1ccccc1)NC(=O)[C@H](Cc1c[nH]c2ccccc12)NC(=O)[C@H](CCCCN)NC(=O)[C@H](CC(C)C)NC(=O)[C@@H](N)CCCNC(=N)N)C(=O)N[C@@H](Cc1ccccc1)C(=O)N[C@@H](CCCNC(=N)N)C(=O)N[C@@H](CCCCN)C(=O)N[C@@H](CCCNC(=N)N)C(=O)O` [Chain307] (H-RLKWFWLFRKR-OH; N-terminus and C-terminus assumed), the “antifungal activity against Aspergillus flavus” value in data set [6] is “has activity; also recorded: particularly active”. In data set [7], the “antifungal activity against Penicillium chrysogenum” value is listed as “has activity; also recorded: particularly active”. Moreover, the “side effects to humans as tested by hemolysis assay” value in the data set with human erythrocytes is “little side effects”. Besides, in data set [8], the “activity against the four ATCC strains” value was “very active”.

Regarding `CC(C)C[C@H](NC(=O)[C@H](CCCCN)NC(=O)[C@H](CCCCN)NC(=O)[C@H](Cc1ccccc1)NC(=O)[C@H](CC(C)C)NC(=O)[C@H](Cc1c[nH]c2ccccc12)NC(=O)[C@H](CCCNC(=N)N)NC(=O)[C@H](Cc1c[nH]c2ccccc12)NC(=O)[C@H](CCCCN)NC(=O)[C@H](CCCNC(=N)N)NC(=O)[C@@H](N)CCCCN)C(=O)O` [Chain310] (H-KRKWRWLFKKL-OH; N-terminus and C-terminus assumed), the “antifungal activity against Aspergillus flavus” value in data set [6] is recorded as “has activity; also recorded: particularly active”. Further, in data set [7], the “antifungal activity against Penicillium chrysogenum” value is on record as “has activity; also recorded: particularly active”. Moreover, the “side effects to humans as tested by hemolysis assay” value in the data set with human erythrocytes was “little side effects”. Moreover, the “MIC against MRSA strains along with Ertapenem, L-peptide” value with S. aureus COL (MRSA) amounted to 0.06 µg/mL. Further, the “activity against the four ATCC strains” value in [8] is “very active”.
